Laboratory results as given in patent US20260262643A1, “HERBICIDAL BENZOXAZINES” (FMC CORPORATION, priority 2022, published 2026).

What was measured:
blackgrass [1] = test: Test A postemergence; assay type: in vivo, Alopecurus myosuroides
In short: (§1)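 Visual injury ratings on a 0–100 scale (100 = complete control) versus untreated controls, taken 10 days after treatment in greenhouse. Preemergence: directed soil spray onto seeded loam/sand. Postemergence: foliar application at one- to two-leaf stage, plants 2–10 cm. Formulation: non-phytotoxic solvent plus surfactant.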

rice = test: Test B flooded paddy test; assay type: in vivo, Oryza sativa; details: 250 g ai/ha, Flood, 13 days, 0 to 100 scale (0 no effect, 100 complete control)
In short: (§2)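 Two-leaf plants, 3 cm flood, in-water application, 13-day greenhouse hold, visual 0–100 rating vs untreated checks.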

ryegrass, Italian [2] = test: Test A preemergence; assay type: in vivo, Lolium multiflorum
In short: as §1

blackgrass [3] = test: Test A preemergence; assay type: in vivo, Alopecurus myosuroides
In short: as §1

barnyardgrass = test: Test B flooded paddy test; assay type: in vivo, Echinochloa crus-galli; details: 250 g ai/ha, Flood, 13 days, 0 to 100 scale (0 no effect, 100 complete control)
In short: as §2

corn [4] = test: Test A postemergence; assay type: in vivo, Zea mays
In short: as §1

ryegrass, Italian [5] = test: Test A postemergence; assay type: in vivo, Lolium multiflorum
In short: as §1

pigweed, palmer [6] = test: Test A preemergence; assay type: in vivo, Amaranthus palmeri
In short: as §1

kochia [7] = test: Test A preemergence; assay type: in vivo, Bassia scoparia
In short: as §1

foxtail, giant [8] = test: Test A postemergence; assay type: in vivo, Setaria faberi
In short: as §1

sedge, umbrella = test: Test B flooded paddy test; assay type: in vivo, Cyperus difformis; details: 250 g ai/ha, Flood, 13 days, 0 to 100 scale (0 no effect, 100 complete control)
In short: as §2

kochia [9] = test: Test A postemergence; assay type: in vivo, Bassia scoparia
In short: as §1

oat, wild [10] = test: Test A postemergence; assay type: in vivo, Avena fatua
In short: as §1

galium = test: Test A postemergence; assay type: in vivo, Galium aparine
In short: as §1

ducksalad = test: Test B flooded paddy test; assay type: in vivo, Heteranthera limosa; details: 250 g ai/ha, Flood, 13 days, 0 to 100 scale (0 no effect, 100 complete control)
In short: as §2

foxtail, giant [11] = test: Test A preemergence; assay type: in vivo, Setaria faberi
In short: as §1

soybean [12] = test: Test A postemergence; assay type: in vivo, Glycine max
In short: as §1

pigweed, palmer [13] = test: Test A postemergence; assay type: in vivo, Amaranthus palmeri
In short: as §1

goosegrass [14] = test: Test A postemergence; assay type: in vivo, Eleusine indica
In short: as §1

corn [15] = test: Test A preemergence; assay type: in vivo, Zea mays
In short: as §1

soybean [16] = test: Test A preemergence; assay type: in vivo, Glycine max
In short: as §1

ragweed [17] = test: Test A postemergence; assay type: in vivo, Ambrosia artemisiifolia
In short: as §1

horseweed = test: Test A postemergence; assay type: in vivo, Erigeron canadensis
In short: as §1

wheat [18] = test: Test A preemergence; assay type: in vivo, Triticum aestivum
In short: as §1

goosegrass [19] = test: Test A preemergence; assay type: in vivo, Eleusine indica
In short: as §1

ragweed [20] = test: Test A preemergence; assay type: in vivo, Ambrosia artemisiifolia
In short: as §1

wheat [21] = test: Test A postemergence; assay type: in vivo, Triticum aestivum
In short: as §1

oat, wild [22] = test: Test A preemergence; assay type: in vivo, Avena fatua
In short: as §1

[23] = 125 g ai/ha, postemergence, 10 days, visual injury, 0 to 100 scale (0 no effect, 100 complete control)
[24] = 500 g ai/ha, Postemergence, 0 to 100 scale
[25] = 125 g ai/ha, visual injury after 10 days, 0 to 100 scale, 0 is no effect, 100 is complete control
[26] = 500 g ai/ha, 0 to 100 scale (0 no effect, 100 complete control), 10 days

CC1CN(C(=O)c2cccc(-n3cncn3)c2)c2c(F)cccc2O1 (stereo not shown) [Compound 28]
Plant response rating, Blackgrass (blackgrass [1]; [23]): 30 | Plant response rating, Blackgrass (blackgrass [1]; [24]): 80 | Plant response rating, Rice (rice): 0 | Plant response rating, Ryegrass, Italian (ryegrass, Italian [2]; [25]): 40 | Plant response rating, Ryegrass, Italian (ryegrass, Italian [2]; [26]): 90 | Plant response rating, Blackgrass (blackgrass [3]; [25]): 0 | Plant response rating, Blackgrass (blackgrass [3]; [26]): 60 | Plant response rating, Barnyardgrass (barnyardgrass): 10 | Plant response rating, Corn (corn [4]; [23]): 0 | Plant response rating, Corn (corn [4]; [24]): 20 | Plant response rating, Ryegrass, Italian (ryegrass, Italian [5]; [23]): 0 | Plant response rating, Ryegrass, Italian (ryegrass, Italian [5]; [24]): 70 | Plant response rating, Pigweed, Palmer (pigweed, palmer [6]; [25]): 0 | Plant response rating, Pigweed, Palmer (pigweed, palmer [6]; [26]): 50 | Plant response rating, Kochia (kochia [7]; [25]): 0 | Plant response rating, Kochia (kochia [7]; [26]): 20 | Plant response rating, Foxtail, Giant (foxtail, giant [8]; [23]): 0 | Plant response rating, Foxtail, Giant (foxtail, giant [8]; [24]): 70 | Plant response rating, Sedge, Umbrella (sedge, umbrella): 0 | Plant response rating, Kochia (kochia [9]; [23]): 0 | Plant response rating, Kochia (kochia [9]; [24]): 20 | Plant response rating, Oat, Wild (oat, wild [10]; [23]): 20 | Plant response rating, Oat, Wild (oat, wild [10]; [24]): 30 | Plant response rating, Galium (galium; [23]): 50 | Plant response rating, Galium (galium; [24]): 50 | Plant response rating, Ducksalad (ducksalad): 80 | Plant response rating, Foxtail, Giant (foxtail, giant [11]; [25]): 30 | Plant response rating, Foxtail, Giant (foxtail, giant [11]; [26]): 90 | Plant response rating, Soybean (soybean [12]; [23]): 90 | Plant response rating, Soybean (soybean [12]; [24]): 90 | Plant response rating, Pigweed, Palmer (pigweed, palmer [13]; [23]): 0 | Plant response rating, Pigweed, Palmer (pigweed, palmer [13]; [24]): 20 | Plant response rating, Goosegrass (goosegrass [14]; [23]): 0 | Plant response rating, Goosegrass (goosegrass [14]; [24]): 50 | Plant response rating, Corn (corn [15]; [25]): 0 | Plant response rating, Corn (corn [15]; [26]): 30 | Plant response rating, Soybean (soybean [16]; [25]): 0 | Plant response rating, Soybean (soybean [16]; [26]): 0 | Plant response rating, Ragweed (ragweed [17]; [23]): 0 | Plant response rating, Ragweed (ragweed [17]; [24]): 0 | Plant response rating, Horseweed (horseweed; [23]): 0 | Plant response rating, Horseweed (horseweed; [24]): 0 | Plant response rating, Wheat (wheat [18]; [25]): 0 | Plant response rating, Wheat (wheat [18]; [26]): 10 | Plant response rating, Goosegrass (goosegrass [19]; [25]): 20 | Plant response rating, Goosegrass (goosegrass [19]; [26]): 80 | Plant response rating, Ragweed (ragweed [20]; [25]): 0 | Plant response rating, Ragweed (ragweed [20]; [26]): 20 | Plant response rating, Wheat (wheat [21]; [23]): 10 | Plant response rating, Wheat (wheat [21]; [24]): 30 | Plant response rating, Oat, Wild (oat, wild [22]; [25]): 0 | Plant response rating, Oat, Wild (oat, wild [22]; [26]): 0
